Source: ChEMBL document CHEMBL1153245, “A profile of the in vitro anti-tumor activity of imidazolium-based ionic liquids” (2010)

Legend:
Assay type in all cases: functional
ACHN = assay: Anticancer activity against human ACHN cells assessed cell growth at 10 uM after 48 hrs by sulforhodamine B assay relative to control
CAKI-1 = assay: Anticancer activity against human Caki1 cells assessed cell growth at 10 uM after 48 hrs by sulforhodamine B assay relative to control
TK-10 = assay: Anticancer activity against human TK10 cells assessed cell growth at 10 uM after 48 hrs by sulforhodamine B assay relative to control
UO-31 = assay: Anticancer activity against human UO31 cells assessed cell growth at 10 uM after 48 hrs by sulforhodamine B assay relative to control
PC-3 = assay: Anticancer activity against human PC3 cells assessed cell growth at 10 uM after 48 hrs by sulforhodamine B assay relative to control
DU-145 = assay: Anticancer activity against human DU145 cells assessed cell growth at 10 uM after 48 hrs by sulforhodamine B assay relative to control
NCI/ADR-RES = assay: Anticancer activity against human NCI/ADR-RES cells assessed cell growth at 10 uM after 48 hrs by sulforhodamine B assay relative to control
MDA-MB-435 = assay: Anticancer activity against human MDA-MB-435 cells assessed cell growth at 10 uM after 48 hrs by sulforhodamine B assay relative to control
BT-549 = assay: Anticancer activity against human BT549 cells assessed cell growth at 10 uM after 48 hrs by sulforhodamine B assay relative to control
T47D = assay: Anticancer activity against human T47D cells assessed cell growth at 10 uM after 48 hrs by sulforhodamine B assay relative to control
MDA-MB-468 = assay: Anticancer activity against human MDA-MB-468 cells assessed cell growth at 10 uM after 48 hrs by sulforhodamine B assay relative to control
K562 = assay: Anticancer activity against human K562 cells assessed cell growth at 10 uM after 48 hrs by sulforhodamine B assay relative to control
[1] = Anticancer activity against human RPMI8266 cells assessed cell growth at 10 uM after 48 hrs by sulforhodamine B assay relative to control
SR = assay: Anticancer activity against human SR cells assessed cell growth at 10 uM after 48 hrs by sulforhodamine B assay relative to control
A549 = assay: Anticancer activity against human A549 cells assessed cell growth at 10 uM after 48 hrs by sulforhodamine B assay relative to control
HOP-62 = assay: Anticancer activity against human HOP62 cells assessed cell growth at 10 uM after 48 hrs by sulforhodamine B assay relative to control
HOP-92 = assay: Anticancer activity against human HOP92 cells assessed cell growth at 10 uM after 48 hrs by sulforhodamine B assay relative to control
NCI-H226 = assay: Anticancer activity against human NCI-H226 cells assessed cell growth at 10 uM after 48 hrs by sulforhodamine B assay relative to control
NCI-H460 = assay: Anticancer activity against human NCI-H460 cells assessed cell growth at 10 uM after 48 hrs by sulforhodamine B assay relative to control
NCI-H522 = assay: Anticancer activity against human NCI-H522 cells assessed cell growth at 10 uM after 48 hrs by sulforhodamine B assay relative to control
COLO 205 = assay: Anticancer activity against human COLO205 cells assessed cell growth at 10 uM after 48 hrs by sulforhodamine B assay relative to control
HCC 2998 = assay: Anticancer activity against human HCC2998 cells assessed cell growth at 10 uM after 48 hrs by sulforhodamine B assay relative to control
HCT-116 = assay: Anticancer activity against human HCT116 cells assessed cell growth at 10 uM after 48 hrs by sulforhodamine B assay relative to control
HCT-15 = assay: Anticancer activity against human HCT15 cells assessed cell growth at 10 uM after 48 hrs by sulforhodamine B assay relative to control
HT-29 = assay: Anticancer activity against human HT-29 cells assessed cell growth at 10 uM after 48 hrs by sulforhodamine B assay relative to control
KM12 = assay: Anticancer activity against human KM12 cells assessed cell growth at 10 uM after 48 hrs by sulforhodamine B assay relative to control
SF-268 = assay: Anticancer activity against human SF268 cells assessed cell growth at 10 uM after 48 hrs by sulforhodamine B assay relative to control
SF-295 = assay: Anticancer activity against human SF295 cells assessed cell growth at 10 uM after 48 hrs by sulforhodamine B assay relative to control
SNB-19 = assay: Anticancer activity against human SNB19 cells assessed cell growth at 10 uM after 48 hrs by sulforhodamine B assay relative to control
U-251 = assay: Anticancer activity against human U251 cells assessed cell growth at 10 uM after 48 hrs by sulforhodamine B assay relative to control
LOX IMVI = assay: Anticancer activity against human LOXIMVI cells assessed cell growth at 10 uM after 48 hrs by sulforhodamine B assay relative to control
M14 = assay: Anticancer activity against human M14 cells assessed cell growth at 10 uM after 48 hrs by sulforhodamine B assay relative to control
SK-MEL-2 = assay: Anticancer activity against human SK-MEL-2 cells assessed cell growth at 10 uM after 48 hrs by sulforhodamine B assay relative to control
SK-MEL-28 = assay: Anticancer activity against human SK-MEL-28 cells assessed cell growth at 10 uM after 48 hrs by sulforhodamine B assay relative to control
UACC-257 = assay: Anticancer activity against human UACC257 cells assessed cell growth at 10 uM after 48 hrs by sulforhodamine B assay relative to control
IGROV-1 = assay: Anticancer activity against human IGROV1 cells assessed cell growth at 10 uM after 48 hrs by sulforhodamine B assay relative to control
OVCAR-3 = assay: Anticancer activity against human OVCAR-3 cells assessed cell growth at 10 uM after 48 hrs by sulforhodamine B assay relative to control
OVCAR-4 = assay: Anticancer activity against human OVCAR4 cells assessed cell growth at 10 uM after 48 hrs by sulforhodamine B assay relative to control
OVCAR-8 = assay: Anticancer activity against human OVCAR8 cells assessed cell growth at 10 uM after 48 hrs by sulforhodamine B assay relative to control
SK-OV-3 = assay: Anticancer activity against human SKOV3 cells assessed cell growth at 10 uM after 48 hrs by sulforhodamine B assay relative to control
A498 = assay: Anticancer activity against human A498 cells assessed cell growth at 10 uM after 48 hrs by sulforhodamine B assay relative to control
HL-60(TB) = assay: Anticancer activity against human HL-60(TB) cells assessed cell growth at 10 uM after 48 hrs by sulforhodamine B assay relative to control
CCRF-CEM = assay: Anticancer activity against human CCRF-CEM cells assessed cell growth at 10 uM after 48 hrs by sulforhodamine B assay relative to control

CCCCCCCC[n+]1ccn(C)c1.F[B-](F)(F)F
Activity (ACHN): 70.72% | Activity (CAKI-1): 60.04% | Activity (TK-10): 76.77% | Activity (UO-31): 76.51% | Activity (PC-3): 83.86% | Activity (DU-145): 95.55% | Activity (NCI/ADR-RES): 91.95% | Activity (MDA-MB-435): 59.67% | Activity (BT-549): 64.81% | Activity (T47D): 75.19% | Activity (MDA-MB-468): 39.75% | Activity (K562): 81.46% | Activity [1]: 64.64% | Activity (SR): 87.14% | Activity (A549): 89.22% | Activity (HOP-62): 91.23% | Activity (HOP-92): 87.53% | Activity (NCI-H226): 75.04% | Activity (NCI-H460): 98.66% | Activity (NCI-H522): 69.23% | Activity (COLO 205): 77.64% | Activity (HCC 2998): 70.57% | Activity (HCT-116): 66.53% | Activity (HCT-15): 97.47% | Activity (HT-29): 70.49% | Activity (KM12): 79.57% | Activity (SF-268): 103.08% | Activity (SF-295): 78.23% | Activity (SNB-19): 81.8% | Activity (U-251): 73.04% | Activity (LOX IMVI): 72.64% | Activity (M14): 87.56% | Activity (SK-MEL-2): 90.35% | Activity (SK-MEL-28): 105.03% | Activity (UACC-257): 87.94% | Activity (IGROV-1): 85.75% | Activity (OVCAR-3): 102.92% | Activity (OVCAR-4): 66.15% | Activity (OVCAR-8): 73.05% | Activity (SK-OV-3): 81.16% | Activity (A498): 99.32% | Activity (HL-60(TB)): 64.63% | Activity (CCRF-CEM): 45.61%

CCCCCCCCCCCCCCCCCC[n+]1ccn(C)c1.F[P-](F)(F)(F)(F)F
Activity (ACHN): 5.45% | Activity (CAKI-1): -80.74% | Activity (TK-10): -59.16% | Activity (UO-31): -29.46% | Activity (PC-3): -62.83% | Activity (DU-145): -12.17% | Activity (NCI/ADR-RES): 22.73% | Activity (MDA-MB-435): -71.22% | Activity (BT-549): -23.5% | Activity (T47D): 13.4% | Activity (MDA-MB-468): -23.16% | Activity (K562): 14.23% | Activity [1]: 19.57% | Activity (SR): 13.95% | Activity (A549): -24.42% | Activity (HOP-62): -56% | Activity (HOP-92): -47.8% | Activity (NCI-H226): -34.72% | Activity (NCI-H460): -67.11% | Activity (NCI-H522): -53.86% | Activity (COLO 205): -27.43% | Activity (HCC 2998): -83.5% | Activity (HCT-116): -27.74% | Activity (HCT-15): 9.24% | Activity (HT-29): -50.31% | Activity (KM12): -60.81% | Activity (SF-268): -48.33% | Activity (SF-295): -28.21% | Activity (SNB-19): -67.18% | Activity (U-251): -22.42% | Activity (LOX IMVI): -13.99% | Activity (M14): -28.52% | Activity (SK-MEL-2): -42.48% | Activity (SK-MEL-28): -57.59% | Activity (UACC-257): -62.12% | Activity (IGROV-1): -12.15% | Activity (OVCAR-3): -57.4% | Activity (OVCAR-4): -10.51% | Activity (OVCAR-8): -34.11% | Activity (SK-OV-3): -6.01% | Activity (A498): -51.56% | Activity (HL-60(TB)): 2.58% | Activity (CCRF-CEM): 13.72%

CCCCCCCCCCCC[n+]1ccn(C)c1.F[B-](F)(F)F
Activity (ACHN): 54.07% | Activity (CAKI-1): 30.59% | Activity (TK-10): 24.24% | Activity (UO-31): 68.16% | Activity (PC-3): 74.38% | Activity (DU-145): 7.97% | Activity (NCI/ADR-RES): 76.53% | Activity (MDA-MB-435): 20.42% | Activity (BT-549): 1.51% | Activity (T47D): 11.08% | Activity (MDA-MB-468): -43.37% | Activity (K562): 80.69% | Activity [1]: 130.35% | Activity (SR): 100.03% | Activity (A549): 37.89% | Activity (HOP-62): 28.7% | Activity (HOP-92): 46.45% | Activity (NCI-H226): 37.19% | Activity (NCI-H460): 23.03% | Activity (NCI-H522): -10.37% | Activity (COLO 205): 15.15% | Activity (HCC 2998): 28.68% | Activity (HCT-116): 16.24% | Activity (HCT-15): 82.38% | Activity (HT-29): 24.82% | Activity (KM12): 21.76% | Activity (SF-268): 66.79% | Activity (SF-295): 34.1% | Activity (SNB-19): 39.2% | Activity (U-251): 36.74% | Activity (LOX IMVI): 35.51% | Activity (M14): 24.71% | Activity (SK-MEL-2): 18.52% | Activity (SK-MEL-28): 62.65% | Activity (UACC-257): -7.74% | Activity (IGROV-1): 1.02% | Activity (OVCAR-3): 55.26% | Activity (OVCAR-4): 12.68% | Activity (OVCAR-8): 13.12% | Activity (SK-OV-3): 47.29% | Activity (A498): 35.81% | Activity (HL-60(TB)): 50.79% | Activity (CCRF-CEM): 96%
